# Publication PMC6914834, “New Dihydroisocoumarin Root Growth Inhibitors From the Sponge-Derived Fungus Aspergillus sp. NBUF87” (Frontiers in Microbiology, 2019)
# Read-outs that look alike come from different tables or passages of the source.
# Key:
# AGS = test: In vitro cancer cell cytotoxicity (MTT), AGS; format: cell-based; conditions: Homo sapiens, positive control, quantity not given
# Protocol: (§1) 7-Ethyl-10-hydroxycamptothecin (1.3, 10.8, 9.9, and 4.2 nM, respectively) was used as the positive control against four above-mentioned human cancer cell lines.
# HCT-116 = test: In vitro cancer cell cytotoxicity (MTT), HCT-116; format: cell-based; conditions: Homo sapiens, positive control, quantity not given
# Protocol: as §1
# MDA-MB-231 = test: In vitro cancer cell cytotoxicity (MTT), MDA-MB-231; conditions: Homo sapiens, MDA-MB-231, read-out: cytotoxicity of positive control, MDA-MB-231
# CCRF-CEM = test: In vitro cancer cell cytotoxicity (MTT), CCRF-CEM; format: cell-based; conditions: Homo sapiens, positive control, quantity not given
# Protocol: as §1
# Plasmodium falciparum W2 = test: In vitro antimalarial activity assay; format: cell-based
# Protocol: The in vitro antimalarial activity of the compounds was evaluated against the parasite (Plasmodium falciparum W2), which was cultured continuously according to a previously described method ([Lazaro et al., 2006]).
# [1] = test system: methicillin-resistant Staphylococcus aureus ATCC43300; test: Antibacterial activity assay, MRSA; format: cell-based; conditions: 96-well plates, read-out: MIC, methicillin-resistant S. aureus ATCC43300
# Protocol: Compounds 1−11 were evaluated for their antibacterial activities against methicillin-resistant Staphylococcus aureus ATCC43300 and Escherichia coli ATCC25922 in 96-well plates according to the method described by [Gu et al. (2018)]. Ciprofloxacin was selected as a positive control against the above-mentioned bacteria with MIC values of 0.5 μg/mL.
# [2] = test system: Arabidopsis thaliana Columbia-0 (Col-0); test: Plant growth response assay (root growth); format: in vivo; conditions: 100 μM
# Protocol: Arabidopsis thaliana Col-0, a model organism for plant growth and development, was used to test each isolated compound according to a previously described protocol ([Li X. et al., 2018]; [Huang et al., 2019]). Plants grown in 2% (v/v) DMSO were used as the negative control. Seeds of Col-0 incubated in 1 μM of 6-benzylaminopurine (BAP) were selected as the positive control. Test samples were dissolved in 2% (v/v) DMSO at various test concentrations for the experiment.
# [3] = W2, in vitro, positive controls, read-out: EC50, P. falciparum W2 (positive controls)
smiles,measurement,setting,value
CCc1c2c(nc3ccc(O)cc13)-c1cc3c(c(=O)n1C2)COC(=O)[C@]3(O)CC [7-Ethyl-10-hydroxycamptothecin],IC50,AGS,4.2 nM
same,IC50,HCT-116,9.9 nM
same,IC50,MDA-MB-231,10.8 nM
same,IC50,CCRF-CEM,1.3 nM
CCN(CC)CCCC(C)Nc1ccnc2cc(Cl)ccc12 (stereo not shown) [Chloroquine],EC50,"Plasmodium falciparum W2; W2, read-out: EC50, P. falciparum W2 (positive controls)",112 nM
O=C(O)c1cn(C2CC2)c2cc(N3CCNCC3)c(F)cc2c1=O [Ciprofloxacin],MIC,[1],0.5 µg/mL
"C[C@H](O)CCC[C@@H]1Cc2c(O)ccc(O)c2C(=O)O1 [Compound 1, aspergimarin A]",root growth inhibitory activity in plant growth response assay,[2],root growth inhibitory activity was observed
same,inhibitory effect on lateral root growth of Col-0,[2]; 10 days after seed germination,significant inhibitory effect
"C[C@H](O)CCC[C@H]1OC(=O)c2c(O)cccc2[C@@H]1O [Compound 5, aspergimarin E]",root growth inhibitory activity in plant growth response assay,[2],root growth inhibitory activity was observed
same,inhibition of primary root growth of Col-0,[2]; 10 days after seed germination,notable inhibition
same,inhibitory effect on lateral root growth of Col-0,[2]; 10 days after seed germination,notable inhibition
C[C@@H]1CC[C@H]2[C@@H](C)C(=O)O[C@@H]3O[C@@]4(C)CC[C@@H]1[C@]32OO4 [artemisinin],EC50,Plasmodium falciparum W2; [3],160 nM
O=C1C(O)=C([C@H]2CC[C@H](c3ccc(Cl)cc3)CC2)C(=O)c2ccccc21 [atovaquone],EC50,Plasmodium falciparum W2; [3],2.5 nM
